Common to all, as to assay type: in vivo, BALB/C mice
The subject of assay [1] is Ly-6C+ T cells of CD8+ T cells. Put plainly: Flow cytometric profiling of tumor draining lymph nodes. The settings on record: tumor draining lymph node, 7 days after randomization. The procedure: (§1) Hydrogels were administered as suspension in PTP buffer. Some cohorts were further treated with 20 μg human IL-2 (Peprotech, Rocky Hill, N.J.), intraperitoneally (I.P.), twice a day for 5 days. Mice were sacrificed 7 days after randomization (DO). Following sacrifice, tumor draining lymph nodes were isolated from both flanks and were dissociated mechanically to generate a single cell suspension at a cell concentration of 1×10^6 cells per sample. Cell suspensions were centrifuged at 300 g for 5 minutes. Supernatants were discarded and cells were resuspended in FACS buffer with 1 μg/ml Fc-Block and incubated at 4° C. for 10 minutes in the dark. Surface marker antibody mixtures (antibody concentration: 10 μg/mL) in FACS buffer were added to each sample and samples were incubated in the dark at 4° C. for 30 minutes. Cells were centrifuged at 300 g for 5 minutes and supernatants were discarded. Cells were washed and then resuspended with FACS buffer before cytometer collection.
(§2) After collection, FACS data was analyzed using FlowJo Version 10.6.1. Compensation was digitally adjusted using single antibody-stained beads. Samples with less than 90% viability, as determined by LiveDead cell staining, were excluded from the analysis. Cells were defined using the following gating strategy: • 1) Ly-6C^+ antigen presenting cells: FSC-H/FSC-A Singlets/LiveDead^−/CD45^+/CD3^−/CD335^−/Ly-6C^+ • 2) Ly-6C^+ MHCII^+ antigen presenting cells: FSC-H/FSC-A Singlets/LiveDead^−/CD45^+/CD3^−/CD335^−/Ly-6C^+/IA/IE (MHCII)^+ • 3) CD8^+ T cells: FSC-H/FSC-A Singlets/LiveDead^−/CD45^+/CD3^+/CD8 single positive 4) Ly-6C^+ CD8^+ T cells: FSC-H/FSC-A Singlets/LiveDead^−/CD45^+/CD3^+/CD8 single positive/Ly-6C^+
In general terms: In flow cytometry, cells or beads pass a laser one at a time.

Assay [2] deals with CD8+ T cells of CD3+ T cells. The assay is described as above. Particulars: tumor draining lymph node, 7 days after randomization. The protocol: as §1, §2
Assay [3] has as its system peripheral blood mononuclear cells (PBMC). Put plainly: PBMC gene expression (qPCR), 6 hours post-treatment. The protocol:
Hydrogels were administered as suspensions in PTP buffer. […] Tumors were excised, weighed and snap frozen. […] For PBMC isolations, approximately 600 μl of whole blood was collected via cardiac puncture. The collected whole blood from each individual mouse was diluted with a 1:1 ratio of pre-warmed PBS supplemented with 2% Fetal Bovine Serum (FBS). Then an equal volume of Histopaque-1083 was added to a new sterile 15 mL conical tube, where the diluted whole blood was layered over the Histopaque-1083. The mixture was then centrifuged at 400 g for 30 minutes. The top plasma layer was discarded, and the white translucent interlayer (mononuclear cells) was carefully transferred to a new sterile centrifuge tube. The mononuclear cells were then washed with PBS supplemented with 2% FBS and then were spun down at 250 g for 10 minutes. […] RNA concentrations were measured using a NanoDrop (ThermoFisher) and then adjusted to […] with RNase-free water. RNA quality was assessed using a NanoDrop (ThermoFisher). […] 200 ng of cDNA was used for quantitative PCR using the RT^2 SYBR Green ROX qPCR Master mix (2X) kit (QIAGEN) following manufacturer's recommendations. […] For each gene, 3 technical replicates were analyzed per biological replicate. Undetermined technical replicate CT values were recorded as zero ΔCT values. 4-5 biological replicates were assessed in total.
On the technique in general: In qPCR the cycle at which signal appears reflects the starting amount.

Structures are written as SMILES.

In the case of `CCOCc1nc2c(N)nc3ccccc3c2n1CC(C)(C)O` [Compound 4, Resiquimod], the “Frequency of Ly-6C+ T cells of CD8+ T cells, Mean” value is recorded as 53.7% in assay [1] (injected right flank) and 48% in assay [1] (uninjected left flank). For the same molecule, the results for the “Frequency of CD8+ T cells of CD3+ T cells, Mean” value in assay [2] (injected right flank) and in assay [2] (uninjected left flank) were 29.23% and 29%, respectively. The “Il1a Mean (2^ΔΔCT)” value in assay [3] is 0.41.

These data come from patent US20220062273A1, “CONJUGATES OF PATTERN RECOGNITION RECEPTOR AGONISTS” (Ascendis Pharma Oncology Division A/S, priority 2019, published 2022).
